Results from ChEMBL document CHEMBL3632583, “Haenamindole, an unusual diketopiperazine derivative from a marine-derived Penicillium sp. KCB12F005” (Bioorg Med Chem Lett, 2015).
Activity calls are given as the source filed them. The rule behind the calls is not given here.

Columns and labels:
Escherichia coli = assay: Antimicrobial activity against Escherichia coli at 50 ug/disk after 48 hrs by paper disk method; format: functional, organism-based
[1] = Cytotoxicity against human Hep3B cells after 96 hrs by WST method; format: functional, cell-based, Hep 3B2
Bacillus cereus = assay: Antimicrobial activity against Bacillus cereus at 50 ug/disk after 48 hrs by paper disk method; format: functional, organism-based
Staphylococcus aureus = assay: Antimicrobial activity against Staphylococcus aureus at 50 ug/disk after 48 hrs by paper disk method; format: functional, organism-based
K562 = assay: Cytotoxicity against human K562 cells after 96 hrs by WST method; format: functional, cell-based; conditions: K562, 96 h
Salmonella enteritidis = assay: Antimicrobial activity against Salmonella enteritidis at 50 ug/disk after 48 hrs by paper disk method; format: functional, organism-based; conditions: Salmonella enterica subsp. enterica serovar Enteritidis
HeLa = assay: Cytotoxicity against human HeLa cells after 96 hrs by WST method; format: functional, cell-based
HL-60 = assay: Cytotoxicity against human HL60 cells after 96 hrs by WST method; format: functional, cell-based; conditions: HL-60, 96 h

SMILES: O=C1N[C@@H](Cc2ccccc2)C(=O)N(O)[C@@H]1C[C@]1(O)c2ccccc2N2C(=O)C[C@@H](c3ccccc3)N[C@H]21
- Activity (Escherichia coli): inactive
- IC50 [1]: > 85 µM
- Activity (Bacillus cereus): inactive
- Activity (Staphylococcus aureus): inactive
- IC50 (K562): > 85 µM
- Activity (Salmonella enteritidis): inactive
- IC50 (HeLa): > 85 µM
- IC50 (HL-60): > 85 µM
